{"source": "ChEMBL document CHEMBL5108002", "about": "“Design, synthesis, and biological evaluation of novel 7-substituted 10,11-methylenedioxy-camptothecin derivatives against drug-resistant small-cell lung cancer in vitro and in vivo” (Eur J Med Chem, 2022)", "key": {"NCI-H446 [1]": {"system": "NCI-H446", "assay": "Antiproliferative activity against Irinotecan-resistant human NCI-H446 cells assessed as inhibition of cell growth incubated for 72 hrs by SRB assay", "type": "functional, cell-based", "details": "NCI-H446, 72 h"}, "NCI-H446 [2]": {"system": "NCI-H446", "assay": "Induction of apoptosis in human NCI-H446 cells assessed as late apoptotic cells at 10 nM incubated for 24 hrs by AnnexinV-FITC/PI staining based flow cytometry analysis (reference value: 0.37 %)", "type": "functional"}, "H69AR [3]": {"system": "H69AR", "assay": "Antiproliferative activity against human NCI-H69AR cells assessed as inhibition of cell growth incubated for 72 hrs by SRB assay", "type": "functional, cell-based"}, "NCI-H446 [4]": {"system": "NCI-H446", "assay": "Antitumor activity against Irinotecan-resistant human NCI-H446 cells xenografted in BALB/c nude mouse assessed as tumor weight at 3 mg/kg, IG administered once a week and measured 3 times a week for 35 days relative to control", "type": "functional", "details": "NCI-H446, po, 840 h, time 35 day, read-out: TGI"}, "H69AR [5]": {"system": "H69AR", "assay": "Induction of apoptosis in human NCI-H69AR cells assessed as early apoptotic cells at 1 nM incubated for 24 hrs by AnnexinV-FITC/PI staining based flow cytometry analysis (reference value: 0.35 %)", "type": "functional"}, "NCI-H446 [6]": {"system": "NCI-H446", "assay": "Induction of apoptosis in human NCI-H446 cells assessed as dead cells at 0.1 nM incubated for 24 hrs by AnnexinV-FITC/PI staining based flow cytometry analysis (reference value: 0.22 %)", "type": "functional"}, "SW-620": {"system": "SW-620", "assay": "Antiproliferative activity against human SW-620 cells assessed as inhibition of cell growth incubated for 72 hrs by SRB assay", "type": "functional, cell-based", "details": "SW-620, 72 h"}, "H69AR [7]": {"system": "H69AR", "assay": "Induction of apoptosis in human NCI-H69AR cells assessed as early apoptotic cells at 10 nM incubated for 24 hrs by AnnexinV-FITC/PI staining based flow cytometry analysis (reference value: 0.35 %)", "type": "functional"}, "NCI-H446 [8]": {"system": "NCI-H446", "assay": "Induction of apoptosis in human NCI-H446 cells assessed as late apoptotic cells at 0.1 nM incubated for 24 hrs by AnnexinV-FITC/PI staining based flow cytometry analysis (reference value: 0.37 %)", "type": "functional"}, "NCI-H69 [9]": {"system": "NCI-H69", "assay": "Induction of apoptosis in human NCI-H69 cells assessed as increase in cleaved-caspase 9 protein expression at 0.1 to 100 nM measured after 24 hrs by Western blot analysis", "type": "functional, cell-based", "details": "dose 0.1-100 nM"}, "U-87 MG": {"system": "U-87 MG", "assay": "Antiproliferative activity against human U87 cells assessed as inhibition of cell growth incubated for 72 hrs by SRB assay", "type": "functional, cell-based, U-87MG ATCC"}, "Bel-7402": {"system": "Bel-7402", "assay": "Antiproliferative activity against human Bel-7402 cells assessed as inhibition of cell growth incubated for 72 hrs by SRB assay", "type": "functional, cell-based", "details": "Bel-7402, 72 h"}, "NCI-H446 [10]": {"system": "NCI-H446", "assay": "Antitumor activity against human NCI-H446 cells xenografted in BALB/c nude mouse assessed as reduction in large tumor growth at 3 mg/kg, IG administered for 31 days by electronic caliper method", "type": "functional, organism-based", "details": "time 31.0 day"}, "NCI-H69 [11]": {"system": "NCI-H69", "assay": "Induction of apoptosis in human NCI-H69 cells assessed as reduction in survivin mRNA expression at 0.1 to 100 nM incubated for 24 hrs by RT-PCR analysis", "type": "functional, cell-based", "details": "dose 0.1-100 nM"}, "NCI-H69 [12]": {"system": "NCI-H69", "assay": "Induction of apoptosis in human NCI-H69 cells assessed as inhibition of survivin protein expression at 0.1 to 100 nM incubated for 24 hrs by Western blot analysis", "type": "functional, cell-based", "details": "dose 0.1-100 nM"}, "NCI-H446 [13]": {"system": "NCI-H446", "assay": "Induction of apoptosis in human NCI-H446 cells assessed as reduction in Bcl-2 mRNA level at 0.1 to 100 nM incubated for 24 hrs by RT-PCR analysis", "type": "functional, cell-based", "details": "dose 0.1-100 nM"}, "NCI-H446 [14]": {"system": "NCI-H446", "assay": "Induction of apoptosis in human NCI-H446 cells assessed as reduction in XIAP mRNA level at 0.1 to 100 nM incubated for 24 hrs by RT-PCR analysis", "type": "functional, cell-based", "details": "dose 0.1-100 nM"}, "MCF7": {"system": "MCF7", "assay": "Antiproliferative activity against human MCF7 cells assessed as inhibition of cell growth incubated for 72 hrs by SRB assay", "type": "functional, cell-based", "details": "MCF7, 72 h"}, "[15]": {"assay": "Toxicity in BALB/c nude mouse xenografted with human NCI-H446 cells assessed as reduction in body weight at high dose administered intragastrically once a week for 28 days and measured three times a week", "details": "in vivo, po, 672 h, route ig, time 28 day"}, "NCI-H69 [16]": {"system": "NCI-H69", "assay": "Induction of apoptosis in human NCI-H69 cells assessed as reduction in XIAP mRNA expression at 0.1 to 100 nM incubated for 24 hrs by RT-PCR analysis", "type": "functional, cell-based", "details": "dose 0.1-100 nM"}, "NCI-H446 [17]": {"system": "NCI-H446", "assay": "Induction of apoptosis in human NCI-H446 cells assessed as inhibition of XIAP protein expression incubated for 24 hrs by Western blot analysis", "type": "functional, cell-based", "details": "dose 0.1-100 nM"}, "NCI-H446 [18]": {"system": "NCI-H446", "assay": "Induction of apoptosis in human NCI-H446 cells assessed as reduction in Mcl-1 mRNA level at 0.1 to 100 nM incubated for 24 hrs by RT-PCR analysis", "type": "functional, cell-based", "details": "dose 0.1-100 nM"}, "NCI-H446 [19]": {"system": "NCI-H446", "assay": "Induction of apoptosis in human NCI-H446 cells assessed as early apoptotic cells at 0.1 nM incubated for 24 hrs by AnnexinV-FITC/PI staining based flow cytometry analysis (reference value: 3.1 %)", "type": "functional"}, "[20]": {"assay": "Resistance index, ratio of IC50 for antiproliferative activity against etoposide/cisplatin combination-resistant human NCI-H446 cells to IC50 for antiproliferative activity against human NCI-H446 cells", "type": "functional"}, "NCI-H446 [21]": {"system": "NCI-H446", "assay": "Antitumor activity against human NCI-H446 cells xenografted in BALB/c nude mouse assessed as tumor growth inhibition at 1.5 mg/kg, IG administered once a week for 28 days by electronic caliper method relative to control", "type": "functional", "details": "NCI-H446, po, 672 h, time 28 day, read-out: TGI"}, "NCI-H446 [22]": {"system": "NCI-H446", "assay": "Induction of apoptosis in human NCI-H446 cells assessed as late apoptotic cells at 1 nM incubated for 24 hrs by AnnexinV-FITC/PI staining based flow cytometry analysis (reference value: 0.37 %)", "type": "functional"}, "H69AR [23]": {"system": "H69AR", "assay": "Induction of apoptosis in human NCI-H69AR cells assessed as reduction in Bcl-2 mRNA expression at 0.1 to 100 nM incubated for 24 hrs by RT-PCR analysis", "type": "functional, cell-based", "details": "dose 0.1-100 nM"}, "H69AR [24]": {"system": "H69AR", "assay": "Induction of apoptosis in human NCI-H69AR cells assessed as inhibition of XIAP protein expression at 0.1 to 100 nM incubated for 24 hrs by Western blot analysis", "type": "functional, cell-based", "details": "dose 0.1-100 nM"}, "NCI-H69 [25]": {"system": "NCI-H69", "assay": "Induction of apoptosis in human NCI-H69 cells assessed as increase in cleaved-caspase 3 protein expression at 0.1 to 100 nM measured after 24 hrs by Western blot analysis", "type": "functional, cell-based", "details": "dose 0.1-100 nM"}, "NCI-H446 [26]": {"system": "NCI-H446", "assay": "Induction of apoptosis in human NCI-H446 cells assessed as increase in cleaved-caspase 9 protein expression at 0.1 to 100 nM measured after 24 to 48 hrs by Western blot analysis", "type": "functional, cell-based", "details": "dose 0.1-100 nM, time 24-48 hrs"}, "SH-SY5Y": {"system": "SH-SY5Y", "assay": "Antiproliferative activity against human SH-SY5Y cells assessed as inhibition of cell growth incubated for 72 hrs by SRB assay", "type": "functional, cell-based"}, "NCI-H446 [27]": {"system": "NCI-H446", "assay": "Induction of apoptosis in human NCI-H446 cells assessed as early apoptotic cells at 10 nM incubated for 24 hrs by AnnexinV-FITC/PI staining based flow cytometry analysis (reference value: 3.1 %)", "type": "functional"}, "Mus musculus": {"system": "Mus musculus", "assay": "Downregulation of Mcl-1 protein expression in tumor of BALB/c mouse xenografted with human NCI-H446 cells at 0.75 mg/kg, IG administered intragastrically once a week for 28 days by western blot analysis", "type": "functional, organism-based", "details": "time 28.0 day"}}, "note": "Active and inactive are the calls of the source. The rule behind the calls is not given here."}
{"smiles": "CC[C@@]1(O)C(=O)OCc2c1cc1n(c2=O)Cc2c-1nc1cc3c(cc1c2-c1ccoc1)OCO3", "values": [{"measurement": "IC50", "setting": "NCI-H446 [1]", "result": 0.5, "unit": "nM"}, {"measurement": "Activity", "setting": "NCI-H446 [2]", "result": 6.25, "unit": "%"}, {"measurement": "IC50", "setting": "H69AR [3]", "result": 5.57, "unit": "nM"}, {"measurement": "inhibition in vivo at 3 mg/kg", "setting": "NCI-H446 [4]", "result": 93.4, "unit": "%"}, {"measurement": "Activity", "setting": "H69AR [5]", "result": 0.62, "unit": "%"}, {"measurement": "Activity", "setting": "NCI-H446 [6]", "result": 0.91, "unit": "%"}, {"measurement": "IC50", "setting": "SW-620", "result": 0.11, "unit": "nM"}, {"measurement": "Activity", "setting": "H69AR [7]", "result": 0.57, "unit": "%"}, {"measurement": "Activity", "setting": "NCI-H446 [8]", "result": 3.73, "unit": "%"}, {"measurement": "Activity", "setting": "NCI-H69 [9]", "result": "Active"}, {"measurement": "IC50", "setting": "U-87 MG", "result": 19.1, "unit": "nM"}, {"measurement": "IC50", "setting": "Bel-7402", "result": 3.8, "unit": "nM"}, {"measurement": "Activity", "setting": "NCI-H446 [10]", "result": "Active"}, {"measurement": "Activity", "setting": "NCI-H69 [11]", "result": "Active"}, {"measurement": "inhibition", "setting": "NCI-H69 [12]", "result": "Active"}, {"measurement": "Activity", "setting": "NCI-H446 [13]", "result": "Active"}, {"measurement": "Activity", "setting": "NCI-H446 [14]", "result": "Active"}, {"measurement": "IC50", "setting": "MCF7", "result": 9.49, "unit": "nM"}, {"measurement": "Activity", "setting": "[15]", "result": "Toxic"}, {"measurement": "Activity", "setting": "NCI-H69 [16]", "result": "Active"}, {"measurement": "inhibition", "setting": "NCI-H446 [17]", "result": "Active"}, {"measurement": "Activity", "setting": "NCI-H446 [18]", "result": "Active"}, {"measurement": "Activity", "setting": "NCI-H446 [19]", "result": 7, "unit": "%"}, {"measurement": "Ratio IC50", "setting": "[20]", "result": 0.63}, {"measurement": "inhibition in vivo at 1.5 mg/kg", "setting": "NCI-H446 [21]", "result": 73.7, "unit": "%"}, {"measurement": "Activity", "setting": "NCI-H446 [22]", "result": 9.6, "unit": "%"}, {"measurement": "Activity", "setting": "H69AR [23]", "result": "Active"}, {"measurement": "inhibition", "setting": "H69AR [24]", "result": "Active"}, {"measurement": "Activity", "setting": "NCI-H69 [25]", "result": "Active"}, {"measurement": "Activity", "setting": "NCI-H446 [26]", "result": "Active"}, {"measurement": "IC50", "setting": "SH-SY5Y", "result": 7.91, "unit": "nM"}, {"measurement": "Activity", "setting": "NCI-H446 [27]", "result": 15.81, "unit": "%"}, {"measurement": "Activity", "setting": "Mus musculus", "result": "Active"}]}
